Some test systems named below: IGROV-1; KM12; RXF 393; RPMI-8226; UACC-62; DMS-273; SK-MEL-2; NCI-H23; SF-295; SR; NCI-H460; A498; SN12C; HCC 2998; OVCAR-8; TK-10; MOLT-4; EKVX; MCF7; BT-549.
Common to all, as to experiment: growth of human tumour cells (NCI), 48 h

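1) Cells in 96-well plates. 2) Compound, 48 h, 5 concentrations. 3) Linear interpolation between surrounding doses. 4) Unreached endpoint = highest concentration. Here, GI50 denotes the concentration required for 50% inhibition of growth.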 Activity calls are given as the source filed them. Cut-off read from the data, not from the text of the source: active = GI50 up to about 1.1 µM and inactive = higher. Where a SMILES comes first, the peptide text is derived from it. [ ]: non-standard residue; d: D form. The star is where a group is joined. ξ: configuration not given here. X4 = COc1ccc(C(N*)c2ccc(OC)cc2)cc1; NMeF = CN[C@@H](Cc1ccccc1)C(=O)O; NMeD = CN[C@@H](CC(=O)O)C(=O)O; NMeV = CN[C@H](C(=O)O)C(C)C; ξNMeV = CNC(C(=O)O)C(C)C; Boc = CC(C)(C)OC(=O)*; ξNMeA = CNC(C)C(=O)O; ξV = CC(C)C(N)C(=O)O Bounds are passed on as bounds.

`Clc1ncnc2c1ncn2CCCCCCCCCCCCn1cnc2c(Cl)ncnc21`: the GI50 was 4.69 µM (inactive) in the assay with IGROV-1; 15.5 µM (inactive) in the assay on KM12; 16.8 µM (inactive) in the assay on RXF 393; 2.13 µM (inactive) in the assay on RPMI-8226; 13.9 µM (inactive) in the assay on UACC-62; 2.71 µM (inactive) in the assay on DMS-273. Also, the GI50 is 13.4 µM (inactive) with SK-MEL-2; 2.49 µM (inactive) in the assay on NCI-H23; 15.4 µM (inactive) with SF-295; 1.06 µM (active) with SR; 16.4 µM (inactive) in the assay with NCI-H460; 12.2 µM (inactive) with A498. In addition, the GI50 with SN12C is 18.6 µM (inactive); in the assay on HCC 2998, 6.7 µM (inactive); with OVCAR-8 it was 11.1 µM (inactive); in the assay with TK-10, 22.1 µM (inactive); with MOLT-4 it was 6.78 µM (inactive); in the assay on EKVX, 16.7 µM (inactive).

Regarding `COc1ccc2nc3cc(Cl)ccc3c(Sc3ccc([N+](=O)[O-])cc3)c2c1`, the GI50 was > 10 µM (inactive) in the assay with IGROV-1; > 10 µM (inactive) with KM12; > 10 µM (inactive) in the assay with RXF 393; > 100 µM (inactive) with RPMI-8226; > 10 µM (inactive) in the assay on UACC-62; > 10 µM (inactive) in the assay with DMS-273. The GI50 with SK-MEL-2, with NCI-H23, in the assay on SF-295, in the assay with SR, in the assay with NCI-H460 and in the assay with A498 was > 10 µM (inactive) throughout. Moreover, the GI50 in the assay on SN12C, in the assay with HCC 2998, in the assay with OVCAR-8, in the assay on TK-10, in the assay with MOLT-4 and in the assay with EKVX was > 10 µM (inactive) throughout.

Regarding `COc1ccc(C(NC(=O)C[C@@H](C(=O)N(C)C(C)C(=O)O)N(C)C(=O)[C@@H]2CCCN2C(=O)[C@H](C(C)C)N(C)C(=O)C(C(C)C)N(C)C(=O)[C@H](Cc2ccccc2)N(C)C(=O)C(NC(=O)OC(C)(C)C)C(C)C)c2ccc(OC)cc2)cc1` (stereo partly specified) (Boc-[ξV][NMeF][ξNMeV][NMeV]P[NMeD](X4)[ξNMeA]-OH), the GI50 is 8.43 µM (inactive) in the assay with IGROV-1; 7.18 µM (inactive) in the assay with KM12; 16.1 µM (inactive) in the assay with MCF7; 6.73 µM (inactive) with BT-549; 7.5 µM (inactive) with RXF 393; 8.24 µM (inactive) with RPMI-8226. In addition, the GI50 was 6.73 µM (inactive) in the assay with UACC-62; 17.2 µM (inactive) with DMS-273; 7.74 µM (inactive) in the assay with SK-MEL-2; 10.4 µM (inactive) with NCI-H23; 18.9 µM (inactive) in the assay with SF-295; 15.6 µM (inactive) with SR. For the same compound, the GI50 in the assay on NCI-H460 was 24.5 µM (inactive); in the assay with A498, > 37.5 µM (inactive); in the assay on SN12C it was 25.5 µM (inactive); with HCC 2998, 6.76 µM (inactive); in the assay on OVCAR-8, 22.1 µM (inactive); in the assay with TK-10 it was 23.7 µM (inactive). For the same compound, the GI50 in the assay on MOLT-4 was 8.39 µM (inactive); in the assay on EKVX it was 25.6 µM (inactive).

`CCOC(=O)/C(=C\c1ccc[nH]1)C(=O)c1ccccc1`: the GI50 is 65.9 µM (inactive) in the assay with KM12; 38.2 µM (inactive) with RXF 393; 82 µM (inactive) with RPMI-8226; 67.6 µM (inactive) in the assay with UACC-62; 26.2 µM (inactive) in the assay on DMS-273; 89.9 µM (inactive) with SK-MEL-2. Besides, the GI50 with NCI-H23 was > 100 µM (inactive); in the assay with SF-295, > 100 µM (inactive); with SR, 25.8 µM (inactive); in the assay on NCI-H460 it was > 100 µM (inactive); in the assay on SN12C, > 100 µM (inactive); in the assay on HCC 2998, > 100 µM (inactive). The GI50 in the assay on OVCAR-8 is > 100 µM (inactive); in the assay with TK-10 it was > 100 µM (inactive); with MOLT-4, 43.3 µM (inactive); in the assay with EKVX, > 100 µM (inactive).

As to `c1ccc([P+](CCC[P+](c2ccccc2)(c2ccccc2)c2ccccc2)(c2ccccc2)c2ccccc2)cc1`, the GI50 was 41.7 µM (inactive) with IGROV-1; 24.4 µM (inactive) in the assay with KM12; 64.4 µM (inactive) in the assay on RXF 393; 7.38 µM (inactive) in the assay with RPMI-8226; 26.1 µM (inactive) with UACC-62; 9.91 µM (inactive) in the assay with DMS-273. Moreover, the GI50 was 25.2 µM (inactive) in the assay on NCI-H23; 31.3 µM (inactive) with SF-295; 45 µM (inactive) in the assay on SR; 20 µM (inactive) with NCI-H460; 93.5 µM (inactive) with A498; 33.3 µM (inactive) in the assay with SN12C. The GI50 was 32.2 µM (inactive) with HCC 2998, 32.6 µM (inactive) with OVCAR-8, 86.7 µM (inactive) with TK-10 and > 100 µM (inactive) in the assay on EKVX.

In the case of `O=C(Cc1nc2ccccc2c(=O)n1-c1c(Cl)cccc1Cl)c1ccncc1`, the GI50 in the assay with IGROV-1 was 22.4 µM (inactive); in the assay on KM12, 15.8 µM (inactive); with RXF 393 it was 18.5 µM (inactive); in the assay with UACC-62, 22.7 µM (inactive); in the assay with DMS-273, 19.4 µM (inactive); in the assay with SK-MEL-2 it was 21.1 µM (inactive). For the same compound, the GI50 is 36.8 µM (inactive) in the assay on NCI-H23; 18 µM (inactive) in the assay on SF-295; 17.8 µM (inactive) in the assay with SR; 21.4 µM (inactive) in the assay on NCI-H460; 30.5 µM (inactive) with A498; 85.9 µM (inactive) in the assay with SN12C. Moreover, the GI50 with HCC 2998 is 22.5 µM (inactive); in the assay on OVCAR-8 it was 29.7 µM (inactive); in the assay with TK-10 it was > 10 µM (inactive); with MOLT-4, 19 µM (inactive); in the assay on EKVX it was 61.5 µM (inactive).

As to `COc1ccc(C2[C@H]3C(=O)N(c4ccc(Cc5ccc(N6C(=O)[C@@H]7ON(c8ccccc8)C(c8ccc(OC)cc8)[C@@H]7C6=O)cc5)cc4)C(=O)[C@H]3ON2c2ccccc2)cc1` (stereo partly specified), the GI50 in the assay on IGROV-1, with KM12, in the assay on RXF 393, in the assay with RPMI-8226, in the assay with UACC-62 and in the assay on DMS-273 was > 100 µM (inactive) each time. The GI50 in the assay with SK-MEL-2, with NCI-H23, in the assay on SF-295, in the assay on SR, with NCI-H460 and with A498 was > 100 µM (inactive) throughout. Besides, the GI50 with SN12C, in the assay with HCC 2998, in the assay on OVCAR-8, with TK-10, in the assay on MOLT-4 and in the assay with EKVX was > 100 µM (inactive) in each case.

As for `CCOC(=O)N1CCN(C=S)CC1`, the GI50 in the assay with IGROV-1, with KM12, with RXF 393, with UACC-62, in the assay with DMS-273 and in the assay with SK-MEL-2 was > 100 µM (inactive) each time. Further, the GI50 with NCI-H23, in the assay on SR, in the assay with NCI-H460, in the assay on A498, in the assay on SN12C and in the assay on HCC 2998 was > 100 µM (inactive) in each case. In addition, the GI50 with OVCAR-8, with TK-10, in the assay on MOLT-4 and in the assay with EKVX was > 100 µM (inactive) in each case.

In the case of `O=C(CCCCCCCCCCc1ccccc1)c1c(O)cccc1O`, the GI50 in the assay on IGROV-1 is 26.5 µM (inactive); in the assay on KM12, 18.4 µM (inactive); with RXF 393, 19.4 µM (inactive); with RPMI-8226, 34.7 µM (inactive); with UACC-62, 20.7 µM (inactive); in the assay on DMS-273 it was 18.2 µM (inactive). In addition, the GI50 in the assay with SK-MEL-2 was 15.8 µM (inactive); in the assay with NCI-H23, 18.9 µM (inactive); with SF-295, 21.3 µM (inactive); in the assay on SR it was 25.2 µM (inactive); in the assay on NCI-H460 it was 20.8 µM (inactive); in the assay with SN12C, 18.7 µM (inactive). In addition, the GI50 in the assay on HCC 2998 was 19.4 µM (inactive); in the assay with OVCAR-8, 20.7 µM (inactive); in the assay on TK-10, 39 µM (inactive); with MOLT-4 it was 23.7 µM (inactive); in the assay with EKVX, 21.3 µM (inactive).

Consider `CCCCCCCCCCCC1CC(=O)NCCCN(C)CCCCN(C)CCCN1C` (stereo unspecified) [BUDMUNCHIAMINE A], for which the GI50 in the assay on IGROV-1 was 1.82 µM (inactive); in the assay with KM12, 1.58 µM (inactive); in the assay with RXF 393 it was 1.6 µM (inactive); with RPMI-8226 it was 0.828 µM (active); with UACC-62 it was 1.68 µM (inactive); in the assay on DMS-273 it was 1.24 µM (inactive). The GI50 in the assay on SK-MEL-2 was 1.75 µM (inactive); in the assay on NCI-H23, 1.73 µM (inactive); with SF-295 it was 1.64 µM (inactive); with SR, 0.23 µM (active); with NCI-H460, 1.36 µM (inactive); in the assay with A498, 1.67 µM (inactive). The GI50 is 1.74 µM (inactive) in the assay on SN12C; 1.74 µM (inactive) with HCC 2998; 1.89 µM (inactive) in the assay with OVCAR-8; 1.73 µM (inactive) in the assay on TK-10; 1.95 µM (inactive) with MOLT-4; 1.78 µM (inactive) in the assay with EKVX.

On to `COC(=O)c1c(CC(=O)OC(C)C)cc2n(c1=O)Cc1c-2nc2ccccc2c1OC`, for which the GI50 was 83.9 µM (inactive) in the assay with IGROV-1; 26.4 µM (inactive) in the assay on RXF 393; 59 µM (inactive) in the assay with RPMI-8226; > 100 µM (inactive) with UACC-62; > 100 µM (inactive) in the assay with DMS-273; > 100 µM (inactive) in the assay on SK-MEL-2. The GI50 in the assay with NCI-H23 is > 100 µM (inactive); in the assay on SF-295, > 100 µM (inactive); in the assay with SR, 33.8 µM (inactive); in the assay with NCI-H460, > 100 µM (inactive); in the assay with A498, > 100 µM (inactive); in the assay with SN12C, > 100 µM (inactive). The GI50 in the assay with HCC 2998, in the assay on OVCAR-8, in the assay on TK-10, in the assay with MOLT-4 and with EKVX was > 100 µM (inactive) each time.

(Values after ChEMBL document CHEMBL1201862, “PubChem BioAssay data set” (2004).)
